Test results published in patent US8147892B2, “Kokumi flavour compounds and use” (Givaudan SA, priority 2005, dated 2012).
“Also recorded” adds a separate entry of the source.

Experiments:
sensory panel [1] = test: Sensory triangle test in chicken broth (kokumi intensity, taste profile); conditions: for kokumi taste (found or not): tested as described in Example 1 (chicken broth), concentration not given; for Sensory descriptors / effect on mouthfulness and complexity of the taste profile / Kokumi intensity (0-5): chicken broth; for Sensory descriptors / Kokumi intensity (0-5): pH 6.5; for Kokumi intensity (0-5): scale 0 to 5 (5 most intensive), negative control 2
Protocol: (§1) Unless otherwise indicated, all sensory tests are triangle tests and are performed according to the guidelines in “Amtliche Sammlung von Untersuchungsverfahren nach §35 LMBG (Lebensmittel-und Bedarfsgegenständegesetz)”; L 00.90 7, Untersuchung von Lebensmitteln, Sensorische Prüfverfahren, Dreiecksprüfung (Übemahme der gleichnahmigen Deutschen Norm DIN ISO 4120, Ausgabe January 1995), as follows:
The sensory panel is trained to evaluate the taste of aqueous solutions (4 ml each) of the following standard taste compounds by using a triangle test as described in the literature (Wieser and Belitz, Z. Lebensm. Unters. Forsch., 1975, 159, 65-72): sucrose (40 mmol/L) for sweet taste; citric acid (5 mmol/L) for sour taste; NaCl (12 mmol/L salty taste; caffeine (2 mmol/L) for bitter taste; and monosodium glutamate (MSG; 6 mmol/L) for umami taste. For kokumi taste, a solution of glutathione (10 mmol/L) in diluted chicken broth concentrate (Goumet Bouillon Huhn, Maggi, Singen, Germany; 3 g/100 g bottled water (Evian®)) is prepared and compared to the taste of chicken broth with no glutathione added.
(§2) All sensory analyses are performed in a sensory panel room at 22-25° C. over three different sessions by a trained panel of 8 to 10 individuals.
(§3) For recording the taste profiles, samples are prepared as indicated in the examples below. Taste profiles of samples are determined in a triangle test in three different sessions. Panellists refrain from eating or drinking for at least 1 hour prior to the session. At the start of the session and before each trial, the subject rinsed with water and expectorated. The participants receive a set of two blanks and one taste sample. Liquid samples are swirled around in the mouth briefly and expectorated. Solid samples are chewed for 20 seconds and then expectorated. […] Each sample with additive is compared to two reference samples without additives. Kokumi intensity is rated from 0-5 according to a scale from 0 to 5 (with 5 most intensive). The additive is added to a consumable and the sample is homogenised. The samples are presented to the sensory panel directly after homogenisation. The sensory panel included 8 trained individuals with exception of example 2, here the panel consists of 10 trained individuals.
Chicken Broth is prepared by dilution of 3 g chicken broth concentrate (Gourmet Bouillon Huhn; Maggi, Singen, Germany) with 100 ml water (Evian). Additives are added as specified in table below.
The pH-value of all samples is adjusted to 6.5 using formic acid (0.1 moVL) or sodium hydroxide (0.1 mol/L).
For each sample, kokumi intensity is rated and panelists are asked to describe sensory characteristics.
Compounds of formula I as listed in the table below are tested in chicken broth (prepared as described in example 1) and compared to hGSH.

sensory panel [2] = test: Sensory triangle test in ketchup; conditions: 2500 ppm; for Test results (sensory description vs reference): ketchup (Kraft)
Protocol: as §1, §2, §3
Glutathione (GSH) and homoglutathione (hGSH) are added to ketchup (Kraft) in a concentration of 2500 ppm.

sensory panel [3] = test: Sensory triangle test in cream cheese; conditions: 1000 ppm
Text: The sensory panel included 8 trained individuals with exception of example 2, here the panel consists of 10 trained individuals.
The mixture is stirred until homogeneous.

sensory panel [4] = test: Sensory triangle test in tomato juice; conditions: for Test results (sensory description vs reference): listed as γ-Glu-Cys-β-Ala
Protocol: as §1, §2, §3
Glutathione and homoglutathione are added to tomato juice (Albi, Germany) in the concentrations indicated below.

C[C@H](N)C(=O)O [Ala]
kokumi taste (found or not) (sensory panel [1]): not to have a kokumi taste

NC(=O)C[C@H](N)C(=O)O [Asn]
kokumi taste (found or not) (sensory panel [1]): not to have a kokumi taste

N[C@@H](CC(=O)O)C(=O)O [Asp]
kokumi taste (found or not) (sensory panel [1]): not to have a kokumi taste

N[C@@H](CSSC[C@H](N)C(=O)O)C(=O)O [Cys-S—S-Cys]
kokumi taste (found or not) (sensory panel [1]): not to have a kokumi taste

N[C@@H](CS)C(=O)O [Cys]
kokumi taste (found or not) (sensory panel [1]): not to have a kokumi taste

N[C@@H](CCC(=O)N[C@@H](CS)C(=O)NCC(=O)O)C(=O)O [GSH, Gamma-L-glutamyl-L-cysteinyl-glycine]
Test results (sensory description vs reference) (sensory panel [2]): the observed effect is lower

NC(=O)CC[C@H](N)C(=O)O [Gln]
kokumi taste (found or not) (sensory panel [1]): not to have a kokumi taste

N[C@@H](CCC(=O)O)C(=O)O [Glu]
kokumi taste (found or not) (sensory panel [1]): not to have a kokumi taste

N[C@@H](CCC(=O)O)C(=O)[O-].[Na+] [MSG, mono sodium glutamate]
Sensory descriptors (sensory panel [1]; additive 10 mmol/L): higher umami (taste of MSG) intensity; also recorded: Increased umami taste
effect on mouthfulness and complexity of the taste profile (sensory panel [1]; positive control 10 mmol/L): no effect on mouthfulness and complexity

[Cl-].[Na+] [NaCl]
Sensory descriptors (sensory panel [1]; additive 30 mmol/L): increased salt taste
Sensory descriptors (sensory panel [1]; additive 30 mmol/L, listed as NaCI): more salty than the negative control
Kokumi intensity (0-5) (sensory panel [1]; additive 30 mmol/L): 2
effect on mouthfulness and complexity of the taste profile (sensory panel [1]; positive control 30 mmol/L): no effect on mouthfulness and complexity

N[C@@H](CCC(=O)N[C@@H](CS)C(=O)NCCC(=O)O)C(=O)O [hGSH, Gamma-L-glutamyl-L-cysteinyl-beta-alanine]
Test results (sensory description vs reference) (sensory panel [3]; cream cheese (Philadelphia, Kraft)): more mouthfulness, richness, and kokumi-like complexity
panelists finding the sample different from the reference sample and preferred (sensory panel [3]; cream cheese): 9 out of a panel of 10
Sensory descriptors (sensory panel [1]; additive 10 mmol/L): increases the mouthfulness, complexity, and long lasting taste sensation
Kokumi intensity (0-5) (sensory panel [1]; additive 10 mmol/L): 4.0
panelists preferring the sample (sensory panel [4]; 250 ppm): 7 out of 8 panelists
Test results (sensory description vs reference) (sensory panel [4]; 250 ppm): more intensive and well-balanced kokumi taste
Test results (sensory description vs reference) (sensory panel [4]; 5000 ppm): even more pronounced kokumi sensation compared to an isoconcentrated glutathione sample
Test results (sensory description vs reference) (sensory panel [2]): more meaty, bouillon-like, and intensified overall taste
panelists indicating more meaty, bouillon-like, and intensified overall taste (sensory panel [2]; ketchup): 7 out of 8 panelists

NCCC(=O)O [β-Ala]
kokumi taste (found or not) (sensory panel [1]): not to have a kokumi taste
